Test results reported in patent EP4696689A1, “SALT FORM AND CRYSTAL FORM OF CHIRAL HETEROCYCLIC COMPOUND HAVING HEDGEHOG PATHWAY ANTAGONIST ACTIVITY” (Suzhou Kintor Pharmaceuticals, Inc., priority 2023, dated 2024).

Assays:
Gli1 Gene = test: Gli1 mRNA expression in tumor tissues (RT-qPCR), Shh signaling pathway analysis; type: in vivo, CB-17/SCID mice; conditions: for mRNA Expression Level of Glil Gene: tumor tissue 2 hours after last administration, GAPDH internal reference
Description: Table 7-1 The Grouping and Drug Administration Plan
Primary tumor cells were extracted from Math1-Cre/Ptch1 ^C/C mice with spontaneous medulloblastoma and subcutaneously inoculated into CB-17/SCID mice to establish a xenograft model of medulloblastoma.
CB-17/SCID mice were subcutaneously injected with primary extracted medulloblastoma cells. After 3-4 weeks, a subset of mice developed tumors with volumes ranging from 150 to 300 mm^3.
From these mice, 25 tumor-bearing mice with uniform tumor sizes (with CV < 30%, CV = SD/Mean) were selected and randomly divided into 5 experimental groups (Vehicle, GDC-0449-10 mg/kg, Compound A-10 mg/kg, Compound A-3 mg/kg, Compound A-1 mg/kg) according to Table 2. Each group consisted of 5 mice per cage. Administration began on the day after grouping. The administration period was 3 days, with a frequency of BID. Tumor tissues were collected 2 hours after the last administration, and the mRNA expression level of the Glil gene in the tumor tissues was analyzed by RT-qPCR.
The tumor tissues were lysed by RNAiso Plius (TaKaRa, 108-95-2) to extractand RNA was then extracted using chloroform extraction and isopropanol precipitation methods. Subsequently, the mRNA level of the Glil gene was detected using a real-time fluorescence quantitative PCR instrument (ABI 7500), with GAPDH serving as the internal reference for quantitative analysis.
Experimental data in all tables are presented as "mean ± standard deviation" with error bars in figures representing standard error of the mean (SEM). Student's t-test was used to compare statistical differences in Glil gene mRNA expression levels in tumor tissues among treatment groups. All data were analyzed using GraphPad Prism 5.0. P-value <0.05 was considered statistically significant. ***, P<0.001; ##, P<0.01.
Glil is a target gene of the Hedgehog signaling pathway, and its mRNA expression level reflects the activation status of the hedgehog signaling pathway.

[1] = hygroscopicity evaluation by dynamic vapor sorption (DVS); type: physicochemical
Description: The DVS curves were collected on a DVS Intrinsic from SMS (Surface Measurement Systems).The relative humidity at 25°C was corrected with the deliquescence points of LiCl, Mg (NO3)2 and KCl.

in vivo = conditions: rat, po, 10 mg/kg
Description: Solvent A: 0.5% CMC-Na +0.2% Tween80
Preparation method: 5 g of sodium carboxymethyl cellulose (CMC-Na) was accurately weighed, 2 mL of Tween 80 was added, 998 mL of purified water was added, stirred and evenly mixed on a magnetic stirrer, and stored at room temperature.
After administration, blood was taken at different time points through orbit, and the blood samples were placed in a tube containing heparin sodium (as an anticoagulant), centrifuged by a cryocentrifuge and then stored in an environment of -80°C. An appropriate amount of plasma sample (50 µL) was taken into which (200 µL) cold acetonitrile containing the internal standard was added. The plasma protein was precipitated by centrifugation for 10 minutes. Finally, 100 µL of the supernatant was added and diluted with 100 µL of pure water and then injected into an LC-MS/MS system for analysis.
LC-MS/MS analysis method: All samples were analyzed by an LC-MS/MS system of an API 3000 mass spectrometer equipped with an Agilent 1100 series of liquid phase systems (Agilent, Japan). Column: Agilent XORBAX, XDB-C8 (50×2.1mm;3.5µm). Column temperature: room temperature, flow rate: 0.4 mL/min, total running time:7min.
For the quantitative analysis of MS/MS, the API3000 mass spectrometer is operated in the positive ESI mode with multiple reaction monitoring (MRM). All compounds and internal standards were monitored with a dwell time of 200 milliseconds. Other MS/MS parameter settings are as follows: Nebulizer gas (NEB): 12 psi, Gas curtain gas (CUR): 7 psi, Collision gas (CAD): 4 psi, Ion spray voltage: 5000V, Ion source temperature:500 °C. For the transitions of the selected ions, each analyte was tested under the optimal sensitivity clustering potential (DP) and collision energy (CE). Finally, the data were collected and processed using the SCIEX Analyst 1.5.2 data processing software system.
Preparation method: 0.1 g of sodium carboxymethyl cellulose (CMC-Na) was accurately weighed, 20 ml of purified water was added, and ultrasonic stirring was performed to dissolve it to obtain 0.5% CMC-Na.

[2] = solid state stability (XRPD, HPLC, chiral purity); type: physicochemical
Description: The purity test, the dynamic solubility and the stability test are tested by the Agilent 1260/1100 high performance liquid chromatograph, and the analysis conditions and chiral purity test analysis conditions of the high performance liquid chromatography test are respectively as follows.
After placing the amorphous free base and fumarate crystal form F of the compound of formula (I) at 25°C/60% RH and 40°C/75% RH for 1 week, the physical and chemical stability of the sample is detected by XRPD and HPLC (at the same time the chiral purity of the sample is tested). […] Table 4-2 Solid Stability Evaluation Summary

[3] = tested on: primary extracted medulloblastoma cells; test: antitumor efficacy against medulloblastoma, subcutaneous xenograft model; type: in vivo, CB-17/SCID mice; conditions: for Tumor Volume at Day 0 (mm^3): before treatment; for T/C (%) / Tumor Volume at Dosing Endpoint (mm^3) / TGI (%): 17 days; for Tumor Volume at Dosing Endpoint (mm^3): volume on Day 18; for Fold Change in Tumor Volume: Day 18 compared to Day 0; for anti-tumor efficacy compared to the high-dose GDC-0449 (10 mg/kg) group: after 17 days of treatment;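 on all read-outs here: male CB-17/SCID mice bearing subcutaneous tumors, randomized at 150-300 mm^3, tumor volume from caliper diameters as 0.5 × longest × shortest squared, measured twice weekly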
Description: 60 male CB-17/SCID mice (aged 6-8 weeks) were purchased from Shanghai SLAC Laboratory Animal Co., Ltd. Animals were housed in individually ventilated cages (IVCs), with five mice per cage. Housing conditions were as follows: temperature was maintained at 20-26°C; humidity was 30-70%; 12 hours of light and 12 hours of darkness.
30 mice with uniform tumor sizes (Coefficient of Variation, CV < 30%, CV = Standard Deviation / Mean) were selected from this group. These mice were selected and randomly divided into five experimental groups according to Table 6-2, with six mice in each group and one group per cage. Drug administration began the day after grouping and lasted for 17 days with a frequency of twice daily (BID). The drug was discontinued after 17 days to observe tumor changes.
During routine examinations, animals were monitored for tumor growth, activity level, food intake, water consumption, weight gain or loss, eye, fur, and any other abnormal behaviors. Animal deaths and clinical abnormalities were recorded. Tumor volume (TV) was measured twice weekly using calipers and calculated using the formula: TV = 0.5a × b^2, wherein a is the longest diameter of the tumor and b is the shortest diameter. Body weight was recorded twice weekly, concurrently with tumor volume measurements.
If the animals' weight subsequently recovered to within a 10% loss compared to baseline, whether to continue the administration was based on the animals' condition. The in vivo experimental for an individual animal or the entire group would be terminated under the following conditions. The animals will be euthanized before death or coma. • ➢ If the animals' health condition deteriorated continuously, causing persistent suffering and is unable to eat or drink. • ➢ If the animal became emaciated, with a body weight loss exceeding 20% compared to the initial administration. • ➢ If the tumor volume of an individual mouse exceeded 3000 mm^3 or the mean tumor volume of the entire group exceeded 2000 mm^3.
All data were analyzed using GraphPad Prism 5.0. P value < 0.05 was considered statistically significant.

[4] = body weight of tumor-bearing mice during treatment; conditions: for Mean Body Weight at Day 0: before treatment; for Body Weight Change Rate (%) / Mean Body Weight at Dosing Endpoint: 17 days
[5] = suspension competition experiment (thermodynamic stability of fumarate crystal forms); type: physicochemical; conditions: from room temperature to 50°C
Description: To study the thermodynamic stability relationship among the crystal forms of the fumarate salt, a suspension competition experiment at room temperature and 50°C is performed on the fumarate salt anhydrous crystal forms A, B, C and F. […] Table 3-1 Summary of Suspension Contention Tests

Cc1cnc(-c2cc(N3CCc4nc(N5CCC(O)CC5)ncc4[C@H]3C)ncc2Cl)c(C)c1 [Fumarate crystal form F]
mRNA Expression Level of Glil Gene (Gli1 Gene; 1 mg/kg i.g. BID × 3 days): 0.609 ± 0.140 | mRNA Expression Level of Glil Gene (Gli1 Gene; 3 mg/kg i.g. BID × 3 days): 0.359 ± 0.113 | mRNA Expression Level of Glil Gene (Gli1 Gene; 10 mg/kg i.g. BID × 3 days): 0.045 ± 0.035 | inhibition of Hedgehog signaling compared with the high-dose group of GDC-0449 (10 mg/kg) (Gli1 Gene; high-dose group (10 mg/kg)): significantly stronger inhibition | moisture adsorption ([1]; 25°C/80% RH, listed as fumarate crystal form F of the compound of formula (I)): 0.3% | Water adsorption (25°C/80%RH) ([1]; 25°C/80%RH): 0.3 | AUC(0-t) at 24 h (in vivo): 14300 ng·h/mL | Cmax (in vivo): 2850 ng/mL | bioavailability (in vivo): 97.5% | Chiral purity (%) ([2]; 25°C/60%RH_1w): 98.6% | Purity (Area%) ([2]; 25°C/60%RH_1w): 99.7 Area% | Purity/Initial purity (%) ([2]; 25°C/60%RH_1w): 100.1% | Chiral purity (%) ([2]; 40°C/75%RH_1w): 98.6% | Purity (Area%) ([2]; 40°C/75%RH_1w): 99.6 Area% | Purity/Initial purity (%) ([2]; 40°C/75%RH_1w): 100.0% | Chiral purity (%) ([2]; Start): 98.6% | Purity (Area%) ([2]; Start): 99.6 Area% | Tumor Volume at Day 0 (mm^3) ([3]; 1 mg/kg group): 220.5 ± 43.7 mm^3 | Tumor Volume ([3]; 1 mg/kg i.g. BID × 17 days, day 0 after grouping): 220.5 ± 43.7 mm3 | Tumor Volume ([3]; 1 mg/kg i.g. BID × 17 days, day 3): 244.9 ± 82.4 mm3 | Tumor Volume ([3]; 1 mg/kg i.g. BID × 17 days, day 6): 483.8 ± 252.8 mm3 | Tumor Volume ([3]; 1 mg/kg i.g. BID × 17 days, day 9): 759.7 ± 401.1 mm3 | Tumor Volume ([3]; 1 mg/kg i.g. BID × 17 days, day 12): 1234.4 ± 582.9 mm3 | Tumor Volume ([3]; 1 mg/kg i.g. BID × 17 days, day 15): 2056.6 ± 1094.9 mm3 | Tumor Volume ([3]; 1 mg/kg i.g. BID × 17 days, day 18): 2868.8 ± 1372.9 mm3 | Tumor Volume ([3]; 1 mg/kg i.g. BID × 17 days, day 21, drug withdrawal observation): 4176.0 ± 1871.1 mm3 | T/C (%) ([3]; 1 mg/kg i.g. BID): 124.5% | Tumor Volume at Dosing Endpoint (mm^3) ([3]; 1 mg/kg i.g. BID): 2868.8 ± 1372.9 mm^3 | Fold Change in Tumor Volume ([3]; 1 mg/kg i.g. BID): 12.80 ± 4.95 | Tumor Volume at Day 0 (mm^3) ([3]; 3 mg/kg group): 244.1 ± 17.1 mm^3 | Tumor Volume ([3]; 3 mg/kg i.g. BID × 17 days, day 0 after grouping): 244.1 ± 17.1 mm3 | Tumor Volume ([3]; 3 mg/kg i.g. BID × 17 days, day 3): 205.3 ± 26.0 mm3 | Tumor Volume ([3]; 3 mg/kg i.g. BID × 17 days, day 6): 147.7 ± 56.5 mm3 | Tumor Volume ([3]; 3 mg/kg i.g. BID × 17 days, day 9): 140.1 ± 62.3 mm3 | Tumor Volume ([3]; 3 mg/kg i.g. BID × 17 days, day 12): 112.7 ± 46.9 mm3 | Tumor Volume ([3]; 3 mg/kg i.g. BID × 17 days, day 15): 125.4 ± 58.9 mm3 | Tumor Volume ([3]; 3 mg/kg i.g. BID × 17 days, day 18): 150.4 ± 77.2 mm3 | Tumor Volume ([3]; 3 mg/kg i.g. BID × 17 days, day 21, drug withdrawal observation): 199.3 ± 93.7 mm3 | Tumor Volume ([3]; 3 mg/kg i.g. BID × 17 days, day 23, drug withdrawal observation): 271.2 ± 131.7 mm3 | Tumor Volume ([3]; 3 mg/kg i.g. BID × 17 days, day 26, drug withdrawal observation): 604.1 ± 328.5 mm3 | Tumor Volume ([3]; 3 mg/kg i.g. BID × 17 days, day 29, drug withdrawal observation): 887.6 ± 407.9 mm3 | Tumor Volume ([3]; 3 mg/kg i.g. BID × 17 days, day 32, drug withdrawal observation): 1209.2 ± 513.6 mm3 | Tumor Volume ([3]; 3 mg/kg i.g. BID × 17 days, day 35, drug withdrawal observation): 1645.0 ±560.6 mm3 | Tumor Volume ([3]; 3 mg/kg i.g. BID × 17 days, day 38, drug withdrawal observation): 2352.0 ± 963.1 mm3 | T/C (%) ([3]; 3 mg/kg i.g. BID): 6.03% | TGI (%) ([3]; 3 mg/kg i.g. BID): 93.97% | Tumor Volume at Dosing Endpoint (mm^3) ([3]; 3 mg/kg i.g. BID): 150.4 ± 77.2 mm^3 | Fold Change in Tumor Volume ([3]; 3 mg/kg i.g. BID): 0.62 ± 0.33 | Tumor Volume at Day 0 (mm^3) ([3]; 10 mg/kg group): 234.5 ± 33.6 mm^3 | Tumor Volume ([3]; 10 mg/kg i.g. BID × 17 days, day 0 after grouping): 234.5 ± 33.6 mm3 | Tumor Volume ([3]; 10 mg/kg i.g. BID × 17 days, day 3): 187.9 ± 44.7 mm3 | Tumor Volume ([3]; 10 mg/kg i.g. BID × 17 days, day 6): 98.7 ± 28.9 mm3 | Tumor Volume ([3]; 10 mg/kg i.g. BID × 17 days, day 9): 47.9 ± 29.8 mm3 | Tumor Volume ([3]; 10 mg/kg i.g. BID × 17 days, day 12): 24.5 ± 14.9 mm3 | Tumor Volume ([3]; 10 mg/kg i.g. BID × 17 days, day 15): 10.9 ± 5.1 mm3 | Tumor Volume ([3]; 10 mg/kg i.g. BID × 17 days, day 18): 8.8 ± 6.1 mm3 | Tumor Volume ([3]; 10 mg/kg i.g. BID × 17 days, day 21, drug withdrawal observation): 14.7 ± 10.1 mm3 | Tumor Volume ([3]; 10 mg/kg i.g. BID × 17 days, day 23, drug withdrawal observation): 16.6 ± 9.7 mm3 | Tumor Volume ([3]; 10 mg/kg i.g. BID × 17 days, day 26, drug withdrawal observation): 18.1 ± 11.5 mm3 | Tumor Volume ([3]; 10 mg/kg i.g. BID × 17 days, day 29, drug withdrawal observation): 43.9 ± 37.3 mm3 | Tumor Volume ([3]; 10 mg/kg i.g. BID × 17 days, day 32, drug withdrawal observation): 92.2 + 101.2 mm3 | Tumor Volume ([3]; 10 mg/kg i.g. BID × 17 days, day 35, drug withdrawal observation): 214.8 + 254.9 mm3 | Tumor Volume ([3]; 10 mg/kg i.g. BID × 17 days, day 38, drug withdrawal observation): 347.4 + 445.9 mm3 | T/C (%) ([3]; 10 mg/kg i.g. BID): 0.39% | TGI (%) ([3]; 10 mg/kg i.g. BID, TGI = [1 - RTV(treatment group) / RTV(control group)] × 100%): 99.61% | Tumor Volume at Dosing Endpoint (mm^3) ([3]; 10 mg/kg i.g. BID): 8.8 ± 6.1 mm^3 | Fold Change in Tumor Volume ([3]; 10 mg/kg i.g. BID): 0.04 ± 0.03 | anti-tumor efficacy compared to the high-dose GDC-0449 (10 mg/kg) group ([3]; high-dose (10 mg/kg)): significantly superior | inhibitory effect on tumor growth versus vehicle control group ([3]; low dose (1 mg/kg)): did not show a significant inhibitory effect | recurrent tumor volume compared with the GDC-0449 group at the same time ([3]; medium and high-dose group, post-treatment observation period): significantly lower | anti-tumor efficacy compared to the high-dose GDC-0449 (10 mg/kg) group ([3]; medium-dose (3 mg/kg)): significantly superior | Mean Body Weight at Day 0 ([4]; 1 mg/kg group): 23.9 ± 3.1 g | Body Weight Change Rate (%) ([4]; 1 mg/kg i.g. BID): 17.2% | Mean Body Weight at Dosing Endpoint ([4]; 1 mg/kg i.g. BID): 28.0 ± 2.2 g | Mean Body Weight at Day 0 ([4]; 3 mg/kg group): 24.6 ± 1.8 g | Body Weight Change Rate (%) ([4]; 3 mg/kg i.g. BID): 8.5% | Mean Body Weight at Dosing Endpoint ([4]; 3 mg/kg i.g. BID): 26.7 ± 2.2 g | Mean Body Weight at Day 0 ([4]; 10 mg/kg group): 22.4 ± 2.1 g | Body Weight Change Rate (%) ([4]; 10 mg/kg i.g. BID): 13.8% | Mean Body Weight at Dosing Endpoint ([4]; 10 mg/kg i.g. BID): 25.5 ± 1.7 g | impact on the body weight of tumor-bearing mice during the treatment period ([4]; administered doses, i.g. BID × 17 days): no significant impact | thermodynamic stability among anhydrous crystal forms A, B, C and F [5]: most thermodynamically stable
